{"source": "paper PMC5808105", "about": "“Sublingual Administration of Sildenafil Oro-dispersible Film: New Profiles of Drug Tolerability and Pharmacokinetics for PDE5 Inhibitors” (Frontiers in Pharmacology, 2018)", "key": {"[1]": {"design": "method as in Zayed et al., 2012; Sun et al., 2014", "settings": "result in words; ref Zayed et al., 2012; Sun et al., 2014; cited from earlier work"}, "[2]": {"settings": "cited from earlier work"}, "[3]": {"assay": "Trans-mucosal permeation test (vertical diffusion system)", "type": "in vitro ADME", "settings": "HBSS, donor-receiver chambers, 0-40 min; equivalent to 50 mg Sild; result in words", "experimental": "Trans-mucosal permeation profile of Sild was evaluated in vitro by using a specific device according to [Delvadia et al. (2012)] appropriately modified. Briefly, the device consisted in a vertical diffusion system featured by donor–receiver chambers separated by a disposable cellulose–acetate membrane (pore 0.45 μm). The donor cell contained 1.5 ml of HBSS, whereas the receiver chamber was part of a closed recirculation circuit of 30 ml including the volumes of tubing and reservoir. Sampling was performed from receiver chamber reservoir at the time intervals of 0, 5, 10, 20, 30, and 40 min and replaced by an equivalent volume of fresh HBSS. The samples were analyzed by HPLC-UV for drug content ([Fejős et al., 2014]). Data were normalized on the highest permeated Sild concentration observed for pure Sild citrate. Tests were performed in triplicate and results were reported as mean value ± standard deviation."}}}
{"compound": "CCCc1nn(C)c2c(=O)[nH]c(-c3cc(S(=O)(=O)N4CCN(C)CC4)ccc3OCC)nc12", "note": "[Sild, Sildenafil]", "values": [{"measurement": "water solubility", "setting": "[1]", "value": "low water solubility"}, {"measurement": "time to peak plasma concentration", "setting": "[2]; after oral administration, ref Gupta et al., 2005", "value": "0.5 to 2", "unit": "h"}, {"measurement": "oral bioavailability", "setting": "[2]; ref Gupta et al., 2005", "value": "38–41%"}]}
{"compound": "CCCc1nn(C)c2c(=O)[nH]c(-c3cc(S(=O)(=O)N4CCN(C)CC4)ccc3OCC)nc12.O=C(O)CC(O)(CC(=O)O)C(=O)O", "note": "[Sild citrate]", "values": [{"measurement": "permeation of Sild through cellulose acetate membrane", "setting": "[3]", "value": "free and fast diffusion between the two chambers"}]}
{"compound": "CCCc1nc(C)c2c(=O)[nH]c(-c3cc(S(=O)(=O)N4CCN(CC)CC4)ccc3OCC)nn12", "note": "[Vardenafil]", "values": [{"measurement": "bioavailability", "setting": "[2]; ref Center for Drug Evaluation and Research, 2003", "value": "~15", "unit": "%"}]}
